Measured values taken from patent publication US20240270762A1, “PENICILLIN-BINDING PROTEIN INHIBITORS” (priority 2021, published 2024).
Values after ≈ are worked out from the molar mass of the structure shown. Like-named read-outs stand apart in the source and are kept apart here.

Key:
[1] = target: T1, PBP3 from Escherichia coli (K-12) (Escherichia coli, UniProt P0AD68); assay: Bocillin-FL fluorescence polarization competition binding, E. coli PBP3
T1 construct: made in house
In short: (§1)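 Purified PBPs pre-incubated with inhibitor (E. coli PBP3 1.5 μM, 30 min; P. aeruginosa PBP3 0.75 μM, A. baumannii PBP1a 1 μM and PBP3 0.2 μM, 15 min), then Bocillin-FL 0.1 μM (0.05 μM for PBP1a) added; FP read up to 60 min. EC50 = concentration halving bound Bocillin-FL.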

[2] = target: T2, PBP3 from Pseudomonas aeruginosa (PAO1) (Pseudomonas aeruginosa, UniProt G3XD46); assay: Bocillin-FL fluorescence polarization competition binding, P. aeruginosa PBP3; details: Binding affinity to P. aeruginosa PBP3; fluorescence polarization competition binding assay using Bocillin-FL; read-out: P. aeruginosa PBP3 Potency
T2 construct: made in house
In short: as §1

[3] = system: P. aeruginosa ATCC 27853; assay: microbe, parasite or virus in culture; type: cell-based; details: Pseudomonas aeruginosa, ATCC27853, read-out: Minimum inhibitory concentration, P. aeruginosa ATCC 27853
[4] = system: P. aeruginosa CDC-0054; assay: microbe, parasite or virus in culture; type: cell-based; details: Pseudomonas aeruginosa, CDC0054, read-out: Minimum inhibitory concentration, P. aeruginosa CDC-0054
[5] = system: P. aeruginosa CDC-0090; assay: microbe, parasite or virus in culture; type: cell-based; details: Pseudomonas aeruginosa, CDC0090, read-out: Minimum inhibitory concentration, P. aeruginosa CDC-0090
[6] = system: P. aeruginosa CDC-0095; assay: microbe, parasite or virus in culture; type: cell-based; details: Pseudomonas aeruginosa, CDC0095, read-out: Minimum inhibitory concentration, P. aeruginosa CDC-0095
[7] = system: A. baumannii CDC-0033; assay: microbe, parasite or virus in culture; type: cell-based; details: Acinetobacter baumannii, CDC0033, read-out: MIC, A. baumannii CDC-0033
[8] = system: A. baumannii CDC-0083; assay: microbe, parasite or virus in culture; type: cell-based; details: Acinetobacter baumannii, CDC0083, read-out: MIC, A. baumannii CDC-0083
[9] = system: B. thailandensis ATCC 700388; assay: microbe, parasite or virus in culture; type: cell-based; details: Burkholderia thailandensis, ATCC700388, read-out: Minimum inhibitory concentration (MIC), B. thailandensis ATCC 700388
[10] = system: B. humptydooensis ATCC BAA-2767; assay: microbe, parasite or virus in culture; type: cell-based; details: Burkholderia humptydooensis, ATCCBAA2767, read-out: Minimum inhibitory concentration (MIC), B. humptydooensis ATCC BAA-2767
[11] = system: P. aeruginosa CDC-0110; assay: microbe, parasite or virus in culture; type: cell-based; details: Pseudomonas aeruginosa, CDC0110, read-out: Minimum inhibitory concentration, P. aeruginosa CDC-0110
[12] = system: N. gonorrhoeae ATCC 49226; assay: Liquid broth MIC in Fastidious broth; details: Neisseria gonorrhoeae
[13] = system: N. gonorrhoeae WHO G; assay: Liquid broth MIC in Fastidious broth; details: Neisseria gonorrhoeae
[14] = system: N. gonorrhoeae WHO X; assay: Liquid broth MIC in Fastidious broth; details: Neisseria gonorrhoeae
[15] = system: N. gonorrhoeae CDC-0197; assay: Liquid broth MIC in Fastidious broth; details: Neisseria gonorrhoeae
[16] = ATCC49226, read-out: Minimum Inhibitory Concentration (MIC), N. gonorrhoeae ATCC 49226
[17] = read-out: Minimum Inhibitory Concentration (MIC), N. gonorrhoeae WHO G
[18] = read-out: Minimum Inhibitory Concentration (MIC), N. gonorrhoeae WHO X
[19] = CDC0197, read-out: Minimum Inhibitory Concentration (MIC), N. gonorrhoeae CDC-0197
[20] = ATCC49226, read-out: Minimum Inhibitory Concentration, ATCC 49226
[21] = read-out: Minimum Inhibitory Concentration, WHO G
[22] = read-out: Minimum Inhibitory Concentration, WHO X
[23] = CDC0197, read-out: Minimum Inhibitory Concentration, CDC-0197

T2 sequence (G3XD46 whole entry): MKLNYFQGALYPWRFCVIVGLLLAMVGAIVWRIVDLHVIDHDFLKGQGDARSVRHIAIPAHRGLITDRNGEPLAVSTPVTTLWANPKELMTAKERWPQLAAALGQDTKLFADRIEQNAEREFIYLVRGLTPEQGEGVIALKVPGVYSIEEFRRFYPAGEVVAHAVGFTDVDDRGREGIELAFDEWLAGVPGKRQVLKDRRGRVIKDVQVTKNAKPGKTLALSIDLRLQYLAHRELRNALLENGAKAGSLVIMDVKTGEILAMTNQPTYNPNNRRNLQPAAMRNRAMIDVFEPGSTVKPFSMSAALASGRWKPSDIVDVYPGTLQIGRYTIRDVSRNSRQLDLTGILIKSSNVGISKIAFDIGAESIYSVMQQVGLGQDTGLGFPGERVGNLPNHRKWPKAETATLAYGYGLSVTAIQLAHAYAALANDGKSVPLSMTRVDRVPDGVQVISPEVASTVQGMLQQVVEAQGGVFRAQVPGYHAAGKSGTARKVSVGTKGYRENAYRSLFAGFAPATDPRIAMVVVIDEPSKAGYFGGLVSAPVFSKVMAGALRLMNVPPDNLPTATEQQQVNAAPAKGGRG
T1 sequence (P0AD68 1-577): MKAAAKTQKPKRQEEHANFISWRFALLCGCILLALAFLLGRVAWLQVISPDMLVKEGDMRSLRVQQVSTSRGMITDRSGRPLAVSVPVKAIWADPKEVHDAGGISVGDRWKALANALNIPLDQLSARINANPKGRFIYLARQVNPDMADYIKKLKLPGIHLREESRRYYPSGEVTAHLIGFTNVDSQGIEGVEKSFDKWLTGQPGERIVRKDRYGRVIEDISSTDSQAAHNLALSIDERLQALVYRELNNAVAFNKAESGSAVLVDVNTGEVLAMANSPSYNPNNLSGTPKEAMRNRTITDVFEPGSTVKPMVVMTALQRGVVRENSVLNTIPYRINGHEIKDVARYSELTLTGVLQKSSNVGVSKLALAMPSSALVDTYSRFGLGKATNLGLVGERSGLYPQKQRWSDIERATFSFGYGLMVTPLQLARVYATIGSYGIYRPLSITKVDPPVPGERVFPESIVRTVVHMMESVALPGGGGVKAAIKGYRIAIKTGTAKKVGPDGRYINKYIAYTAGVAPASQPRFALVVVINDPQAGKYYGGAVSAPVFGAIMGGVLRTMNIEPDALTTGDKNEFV

Structure (SMILES)	EC50 [1]	IC50 [2]	MIC [3]	MIC [4]	MIC [5]	MIC [6]	MIC [7]	MIC [8]	MIC [9]	MIC [10]	MIC [11]	MIC [12, 16]	MIC [13, 17]	MIC [14, 18]	MIC [15, 19]	MIC [12, 20]	MIC [13, 21]	MIC [14, 22]	MIC [15, 23]
O=C(NCCN1CCN(C(=O)NC(C(=O)N[C@H]2Cc3ccc(F)c(C(=O)O)c3OB2O)c2cc(F)c(O)c(O)c2Cl)C1=O)c1cccc(O)c1 (stereo partly drawn) [Example 244, (3R)-3-(2-(2-chloro-5-fluoro-3,4-dihydroxyphenyl)-2-(3-(2-(3-hydroxybenzamido)ethyl)-2-oxoimidazolidine-1-carboxamido)acetamido)-7-fluoro-2-hydroxy-3,4-dihydro-2H-benzo[e][1,2]oxaborinine-8-carboxylic acid]	10 to 50 µM	< 10 µM	2 to 4 mg/L (≈ 2.79 to 5.57 µM)	2 to 4 mg/L (≈ 2.79 to 5.57 µM)	< 1 mg/L	32 to 64 mg/L (≈ 44.6 to 89.2 µM)	2 to 4 mg/L (≈ 2.79 to 5.57 µM)	< 1 mg/L	> 128 mg/L	2 to 4 mg/L (≈ 2.79 to 5.57 µM)	2 to 4 mg/L (≈ 2.79 to 5.57 µM)	> 64 mg/L	16 to 32 mg/L (≈ 22.3 to 44.6 µM)	> 64 mg/L	> 64 mg/L	–	–	–	–
O=C(NCCN1CCN(C(=O)NC(C(=O)N[C@H]2Cc3ccc(F)c(C(=O)O)c3OB2O)c2cc(F)c(O)c(O)c2Cl)C1=O)c1ccncc1 (stereo partly drawn) [Example 245, (3R)-3-(2-(2-chloro-5-fluoro-3,4-dihydroxyphenyl)-2-(3-(2-(isonicotinamido)ethyl)-2-oxoimidazolidine-1-carboxamido)acetamido)-7-fluoro-2-hydroxy-3,4-dihydro-2H-benzo[e][1,2]oxaborinine-8-carboxylic acid]	10 to 50 µM	< 10 µM	2 to 4 mg/L (≈ 2.85 to 5.69 µM)	2 to 4 mg/L (≈ 2.85 to 5.69 µM)	< 1 mg/L	2 to 4 mg/L (≈ 2.85 to 5.69 µM)	8 to 16 mg/L (≈ 11.4 to 22.8 µM)	< 1 mg/L	2 to 4 mg/L (≈ 2.85 to 5.69 µM)	< 1 mg/L	< 1 mg/L	16 to 32 mg/L (≈ 22.8 to 45.5 µM)	16 to 32 mg/L (≈ 22.8 to 45.5 µM)	> 64 mg/L	> 64 mg/L	–	–	–	–
O=C(NCCN1CCN(C(=O)NC(C(=O)N[C@H]2Cc3ccc(F)c(C(=O)O)c3OB2O)c2cc(F)c(O)c(O)c2Cl)C1=O)c1cccnc1 (stereo partly drawn) [Example 246, (3R)-3-(2-(2-chloro-5-fluoro-3,4-dihydroxyphenyl)-2-(3-(2-(nicotinamido)ethyl)-2-oxoimidazolidine-1-carboxamido)acetamido)-7-fluoro-2-hydroxy-3,4-dihydro-2H-benzo[e][1,2]oxaborinine-8-carboxylic acid]	10 to 50 µM	< 10 µM	2 to 4 mg/L (≈ 2.85 to 5.69 µM)	2 to 4 mg/L (≈ 2.85 to 5.69 µM)	2 to 4 mg/L (≈ 2.85 to 5.69 µM)	2 to 4 mg/L (≈ 2.85 to 5.69 µM)	2 to 4 mg/L (≈ 2.85 to 5.69 µM)	< 1 mg/L	2 to 4 mg/L (≈ 2.85 to 5.69 µM)	2 to 4 mg/L (≈ 2.85 to 5.69 µM)	< 1 mg/L	–	–	–	–	16 to 32 mg/L (≈ 22.8 to 45.5 µM)	16 to 32 mg/L (≈ 22.8 to 45.5 µM)	> 64 mg/L	> 64 mg/L
O=C(NCCN1CCN(C(=O)NC(C(=O)N[C@H]2Cc3ccc(F)c(C(=O)O)c3OB2O)c2cc(F)c(O)c(O)c2Cl)C1=O)c1nccs1 (stereo partly drawn) [Example 247, (3R)-3-(2-(2-chloro-5-fluoro-3,4-dihydroxyphenyl)-2-(2-oxo-3-(2-(thiazole-2-carboxamido)ethyl)imidazolidine-1-carboxamido)acetamido)-7-fluoro-2-hydroxy-3,4-dihydro-2H-benzo[e][1,2]oxaborinine-8-carboxylic acid]	10 to 50 µM	< 10 µM	2 to 4 mg/L (≈ 2.82 to 5.64 µM)	2 to 4 mg/L (≈ 2.82 to 5.64 µM)	2 to 4 mg/L (≈ 2.82 to 5.64 µM)	2 to 4 mg/L (≈ 2.82 to 5.64 µM)	2 to 4 mg/L (≈ 2.82 to 5.64 µM)	< 1 mg/L	< 1 mg/L	< 1 mg/L	< 1 mg/L	–	–	–	–	16 to 32 mg/L (≈ 22.6 to 45.1 µM)	16 to 32 mg/L (≈ 22.6 to 45.1 µM)	> 64 mg/L	> 64 mg/L
